Drawing on patent US12606544B2, “JAK1 selective kinase inhibitor” (DIZAL (JIANGSU) PHARMACEUTICAL CO., LTD., priority 2019, dated 2026), this text covers IC50 for 13 compounds.

Read-outs that look alike come from different tables or passages of the source. Bounds are passed on as bounds.

One experiment addresses T1, TYK2 (Homo sapiens, UniProt P29597).
T1 construct: purchased Carna Biosciences
Kind of experiment: Lance Ultra Kinase Assay, recombinant TYK2. The following applies: 5 mM ATP. The experiment is classed as biochemical. The protocol:
(§1) Recombinant JAK1, JAK2, JAK3 and TYK2 purchased from Carna Biosciences. The inhibition potency of compounds against JAK1, JAK2, JAK3 and TYK2 was assessed using Lance Ultra Kinase Assay.
(§2) In brief, recombinant kinases were pre-incubated in the presence or absence of compound at room temperature for 15 minutes. The reaction was initiated by the addition of 5 mM ATP and substrate peptide which could be phosphorylated by kinases in the reaction. After 60 minutes incubation, the reaction was stopped by the addition of the detection reagent mix containing EDTA. The fluorescence was measured at 615 nm and 665 nm, respectively with excitation wavelength at 320 nm. The calculated signal ratio of 665 nm/615 nm is proportional to the kinase activity.

In another experiment the target is T2, JAK3 (Homo sapiens, UniProt P52333).
T2 construct: purchased Carna Biosciences
T2 sequence (P52333 1-1124): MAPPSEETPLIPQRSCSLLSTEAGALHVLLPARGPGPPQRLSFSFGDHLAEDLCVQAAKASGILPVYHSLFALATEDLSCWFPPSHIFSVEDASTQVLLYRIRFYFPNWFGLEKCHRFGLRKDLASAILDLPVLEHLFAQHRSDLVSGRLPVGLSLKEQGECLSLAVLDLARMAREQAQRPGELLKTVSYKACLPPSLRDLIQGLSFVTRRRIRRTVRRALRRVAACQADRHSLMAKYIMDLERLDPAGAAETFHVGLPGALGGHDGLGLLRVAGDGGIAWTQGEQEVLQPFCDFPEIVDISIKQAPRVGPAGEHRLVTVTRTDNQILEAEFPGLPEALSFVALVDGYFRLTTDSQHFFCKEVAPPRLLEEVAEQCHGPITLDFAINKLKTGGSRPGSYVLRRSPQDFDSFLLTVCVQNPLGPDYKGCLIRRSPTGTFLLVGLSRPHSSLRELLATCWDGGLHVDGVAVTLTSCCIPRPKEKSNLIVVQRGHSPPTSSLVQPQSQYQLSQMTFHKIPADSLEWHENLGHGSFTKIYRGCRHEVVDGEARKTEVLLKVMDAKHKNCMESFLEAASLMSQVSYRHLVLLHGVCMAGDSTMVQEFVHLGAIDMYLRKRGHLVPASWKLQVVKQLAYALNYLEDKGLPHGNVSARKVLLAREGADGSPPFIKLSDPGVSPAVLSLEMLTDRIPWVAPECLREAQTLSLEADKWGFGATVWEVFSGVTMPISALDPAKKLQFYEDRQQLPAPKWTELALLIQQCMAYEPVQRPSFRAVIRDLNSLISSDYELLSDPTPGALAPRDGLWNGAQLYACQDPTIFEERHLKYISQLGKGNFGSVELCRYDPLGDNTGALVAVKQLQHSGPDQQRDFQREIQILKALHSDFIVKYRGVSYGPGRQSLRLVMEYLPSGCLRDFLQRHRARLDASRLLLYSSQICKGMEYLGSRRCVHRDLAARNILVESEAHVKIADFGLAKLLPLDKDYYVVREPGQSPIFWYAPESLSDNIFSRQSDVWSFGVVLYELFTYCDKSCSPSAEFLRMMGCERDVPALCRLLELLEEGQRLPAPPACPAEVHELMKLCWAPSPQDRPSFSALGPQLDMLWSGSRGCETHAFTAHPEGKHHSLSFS
As to the kind of experiment: Lance Ultra Kinase Assay, recombinant JAK3. The experiment is classed as biochemical. The following applies: 5 mM ATP. The protocol:
as §1, §2

Another experiment concerns phosphorylation of STAT6. As to the kind of experiment: Cellular p-STAT6 assay, IL-13 stimulated THP-1 cells, flow cytometry. The experiment is classed as cell-based. The following applies: IL-13 10 ng/ml, read-out: pSTAT6 IC50. The protocol:
To detect phosphorylated STAT6 (pSTAT6), THP-1 cells were harvested by centrifugation at 250 g for 5 min and resuspended in assay medium (RPMI1640+10% FBS) to 2×10^5 cells/well. Test compounds were applied to assay plates in serial dilution from 1 μM to 0.3 nM in DMSO. THP-1 cells were incubated with serial diluted compounds for 60 min at room temperature, followed by stimulation of interleukin (IL-13, 10 ng/ml) for 30 min, fixed in Cytofix buffer (BD Biosciences), and permeabilized in 90% methanol on ice. PE anti-pSTAT6 (BD Biosciences) antibodies were stained for 60 min at room temperature before being analyzed by flow cytometry. In the assay the compounds were thus diluted and dose-response curves for inhibition of the signal determine the IC50 for the compounds.

Another experiment concerns the target T3, JAK2 (Homo sapiens, UniProt O60674).
T3 construct: purchased Carna Biosciences
Kind of experiment: Lance Ultra Kinase Assay, recombinant JAK2. The experiment is classed as biochemical. The following applies: 5 mM ATP. The protocol:
as §1, §2

Another experiment deals with T4, JAK1 (Homo sapiens, UniProt P23458).
T4 construct: purchased Carna Biosciences
T4 sequence (P23458 whole entry): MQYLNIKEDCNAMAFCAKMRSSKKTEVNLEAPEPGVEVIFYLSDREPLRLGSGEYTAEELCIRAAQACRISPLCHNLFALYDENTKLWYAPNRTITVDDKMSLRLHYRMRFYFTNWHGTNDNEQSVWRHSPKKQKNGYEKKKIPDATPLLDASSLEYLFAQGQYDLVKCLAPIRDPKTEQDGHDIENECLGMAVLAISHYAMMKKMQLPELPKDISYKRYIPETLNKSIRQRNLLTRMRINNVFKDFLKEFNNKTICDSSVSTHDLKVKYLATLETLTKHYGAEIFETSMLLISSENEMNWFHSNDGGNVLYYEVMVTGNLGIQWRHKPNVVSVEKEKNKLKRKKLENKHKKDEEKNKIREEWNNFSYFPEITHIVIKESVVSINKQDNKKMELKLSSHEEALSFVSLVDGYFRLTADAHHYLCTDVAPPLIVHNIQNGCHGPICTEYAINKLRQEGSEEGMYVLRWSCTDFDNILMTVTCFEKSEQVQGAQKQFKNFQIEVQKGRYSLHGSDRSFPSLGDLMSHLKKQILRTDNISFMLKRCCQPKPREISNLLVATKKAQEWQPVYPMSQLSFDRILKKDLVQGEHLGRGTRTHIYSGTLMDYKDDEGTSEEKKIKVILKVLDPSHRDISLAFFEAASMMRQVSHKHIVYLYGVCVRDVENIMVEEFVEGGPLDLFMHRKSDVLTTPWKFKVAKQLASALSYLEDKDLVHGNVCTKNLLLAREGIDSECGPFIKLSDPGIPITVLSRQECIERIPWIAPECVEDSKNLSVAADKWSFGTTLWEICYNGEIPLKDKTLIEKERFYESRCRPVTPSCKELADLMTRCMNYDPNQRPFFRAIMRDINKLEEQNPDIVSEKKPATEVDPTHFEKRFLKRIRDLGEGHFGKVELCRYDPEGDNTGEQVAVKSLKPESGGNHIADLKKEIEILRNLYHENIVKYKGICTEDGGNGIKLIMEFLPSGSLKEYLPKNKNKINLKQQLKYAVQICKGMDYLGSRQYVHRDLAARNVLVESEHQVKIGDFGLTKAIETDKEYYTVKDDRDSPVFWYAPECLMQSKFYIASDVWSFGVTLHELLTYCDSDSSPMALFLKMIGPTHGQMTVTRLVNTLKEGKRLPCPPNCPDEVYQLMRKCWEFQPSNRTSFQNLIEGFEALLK
Kind of experiment: Lance Ultra Kinase Assay, recombinant JAK1. It counts as biochemical. The following applies: 5 mM ATP. The protocol: as §1, §2

[1] abbreviates: Homo sapiens, THP-1, THP-1 cells.

T1 sequence (P29597 whole entry): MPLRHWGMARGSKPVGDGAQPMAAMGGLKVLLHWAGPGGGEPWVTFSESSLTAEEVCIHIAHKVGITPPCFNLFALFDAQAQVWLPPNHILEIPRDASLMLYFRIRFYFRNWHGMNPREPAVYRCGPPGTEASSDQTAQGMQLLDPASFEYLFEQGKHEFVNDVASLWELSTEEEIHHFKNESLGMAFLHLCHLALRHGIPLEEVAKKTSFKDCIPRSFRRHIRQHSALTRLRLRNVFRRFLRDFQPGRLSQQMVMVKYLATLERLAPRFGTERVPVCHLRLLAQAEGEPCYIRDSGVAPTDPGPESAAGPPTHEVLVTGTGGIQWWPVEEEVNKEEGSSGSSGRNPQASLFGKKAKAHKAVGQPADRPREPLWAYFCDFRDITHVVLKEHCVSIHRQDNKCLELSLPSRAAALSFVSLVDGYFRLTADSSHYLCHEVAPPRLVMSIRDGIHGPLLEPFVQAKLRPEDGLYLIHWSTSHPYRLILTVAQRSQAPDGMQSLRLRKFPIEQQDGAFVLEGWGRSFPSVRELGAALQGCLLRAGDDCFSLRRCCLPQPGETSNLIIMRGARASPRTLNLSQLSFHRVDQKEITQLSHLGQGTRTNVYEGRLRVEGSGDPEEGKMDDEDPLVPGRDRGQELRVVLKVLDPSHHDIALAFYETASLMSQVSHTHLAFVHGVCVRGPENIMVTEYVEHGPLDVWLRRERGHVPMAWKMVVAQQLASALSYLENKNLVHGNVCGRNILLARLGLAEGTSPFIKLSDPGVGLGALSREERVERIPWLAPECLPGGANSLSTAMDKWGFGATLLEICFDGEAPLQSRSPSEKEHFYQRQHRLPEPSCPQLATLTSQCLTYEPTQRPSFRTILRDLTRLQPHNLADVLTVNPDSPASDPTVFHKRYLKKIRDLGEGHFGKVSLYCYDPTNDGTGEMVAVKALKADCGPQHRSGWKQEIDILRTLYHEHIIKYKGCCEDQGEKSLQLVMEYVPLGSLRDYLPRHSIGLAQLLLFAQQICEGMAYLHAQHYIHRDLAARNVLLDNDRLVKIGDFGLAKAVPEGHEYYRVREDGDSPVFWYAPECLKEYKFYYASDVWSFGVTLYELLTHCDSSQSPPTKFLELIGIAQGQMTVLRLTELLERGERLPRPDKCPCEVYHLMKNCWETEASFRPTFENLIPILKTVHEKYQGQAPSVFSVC
T3 sequence (O60674 whole entry): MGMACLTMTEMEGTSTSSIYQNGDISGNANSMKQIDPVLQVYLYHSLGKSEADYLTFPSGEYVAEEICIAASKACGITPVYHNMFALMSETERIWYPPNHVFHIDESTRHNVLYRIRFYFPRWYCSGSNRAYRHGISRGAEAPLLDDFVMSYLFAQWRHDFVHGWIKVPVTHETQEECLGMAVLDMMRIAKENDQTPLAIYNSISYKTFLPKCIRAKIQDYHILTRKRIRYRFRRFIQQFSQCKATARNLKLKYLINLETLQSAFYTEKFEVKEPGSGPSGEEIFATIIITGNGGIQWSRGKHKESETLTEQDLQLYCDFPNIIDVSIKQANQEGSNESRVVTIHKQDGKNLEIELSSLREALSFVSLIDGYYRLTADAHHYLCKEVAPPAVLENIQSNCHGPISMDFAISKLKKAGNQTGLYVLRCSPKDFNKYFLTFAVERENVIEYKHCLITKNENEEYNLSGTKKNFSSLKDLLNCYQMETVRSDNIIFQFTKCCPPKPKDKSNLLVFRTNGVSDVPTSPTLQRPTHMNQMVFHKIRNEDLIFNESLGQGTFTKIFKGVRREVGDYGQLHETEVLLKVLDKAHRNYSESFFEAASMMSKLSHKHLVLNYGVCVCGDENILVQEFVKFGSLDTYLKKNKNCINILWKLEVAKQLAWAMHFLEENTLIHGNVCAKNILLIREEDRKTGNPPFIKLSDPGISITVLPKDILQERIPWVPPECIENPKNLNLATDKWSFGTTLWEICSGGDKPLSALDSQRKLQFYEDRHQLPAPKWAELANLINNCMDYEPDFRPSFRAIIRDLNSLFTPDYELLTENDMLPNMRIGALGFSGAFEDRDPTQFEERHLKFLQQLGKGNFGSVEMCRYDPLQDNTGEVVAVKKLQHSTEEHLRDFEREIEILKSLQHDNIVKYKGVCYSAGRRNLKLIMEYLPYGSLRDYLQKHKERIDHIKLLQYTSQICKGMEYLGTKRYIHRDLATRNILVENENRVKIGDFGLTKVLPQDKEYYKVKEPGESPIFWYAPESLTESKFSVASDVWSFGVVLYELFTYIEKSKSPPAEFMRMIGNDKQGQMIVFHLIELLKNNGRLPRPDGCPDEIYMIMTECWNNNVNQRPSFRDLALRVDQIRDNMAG

With `COC[C@H](C(=O)Nc1cccc2c(-c3nc(Nc4ccc(C(C)O)nc4)ncc3F)c[nH]c12)N1CCN(C)CC1` (single isomer, unassigned; isomer 1) [Example 29, 5-fluoro-2-((6-(1-hydroxyethyl)pyridin-3-yl)amino)pyrimidin-4-yl)-1H-indol-7-yl)-3-methoxy-2-(4-methylpiperazin-1-yl)propanamide (isomer 1)], the IC50 on TYK2 was 0.939 µM; at JAK3 it was greater than 10 µM; in the experiment on phosphorylation of STAT6 (THP-1 cells), 0.0098 µM; at JAK2 it was 0.074 µM; at JAK1, 0.00031 µM.
Consider `COC[C@H](C(=O)Nc1cccc2c(-c3nc(Nc4ccc(C(C)O)nc4)ncc3F)c[nH]c12)N1CCN(C)CC1` (single isomer, unassigned; isomer 2) [Example 9], for which the IC50 was determined as 0.33 µM on TYK2; 9.95 µM on JAK3; 0.0065 µM with phosphorylation of STAT6 (setting [1]); 0.02 µM at JAK2; 0.00025 µM at JAK1.
For `COC[C@H](C(=O)Nc1cccc2c(-c3nc(Nc4cnc(CO)c(C)c4)ncc3F)c[nH]c12)N1CCN(C)CC1` [Example 3, (R)-N-(3-(5-fluoro-2-((6-(hydroxymethyl)-5-methylpyridin-3-yl)amino)pyrimidin-4-yl)-1H-indol-7-yl)-3-methoxy-2-(4-methylpiperazin-1-yl)propanamide] the same measures were 0.156 µM, 7.7 µM, 0.0045 µM, 0.004 µM and 0.00019 µM.
The matching figures for `COC[C@H](C(=O)Nc1cccc2c(-c3nc(Nc4cnn(-c5ccccc5C(=O)OC)c4)ncc3F)c[nH]c12)N1CCN(C)CC1` [Example 6, methyl (R)-2-(4-((5-fluoro-4-(7-(3-methoxy-2-(4-methylpiperazin-1-yl)propanamido)-1H-indol-3-yl)pyrimidin-2-yl)amino)-1H-pyrazol-1-yl)benzoate]: 4.66 µM, greater than 10 µM, 0.006 µM, 0.452 µM and 0.00042 µM.
For `COC[C@H](C(=O)Nc1cccc2c(-c3nc(Nc4cnc(C)c(C(=O)OC)c4)ncc3F)c[nH]c12)N1CCN(C)CC1` [Example 7, methyl (R)-5-((5-fluoro-4-(7-(3-methoxy-2-(4-methylpiperazin-1-yl)propanamido)-1H-indol-3-yl)pyrimidin-2-yl)amino)-2-methylnicotinate], the IC50 on TYK2 was 0.634 µM; at JAK3, greater than 10 µM; in the experiment on phosphorylation of STAT6 (setting [1]), 0.0062 µM; at JAK2, 0.058 µM; at JAK1 it was 0.00021 µM.
For `COC[C@H](C(=O)Nc1cccc2c(-c3nc(Nc4ccc(OCC(=O)OC)nc4)ncc3F)c[nH]c12)N1CCN(C)CC1` [Example 14, methyl (R)-2-((5-((5-fluoro-4-(7-(3-methoxy-2-(4-methylpiperazin-1-yl)propanamido)-1H-indol-3-yl)pyrimidin-2-yl)amino)pyridin-2-yl)oxy)acetate] the same measures were 4.2 µM, greater than 10 µM, 0.0073 µM, 0.336 µM and 0.0002 µM.
For `COC[C@H](C(=O)Nc1cccc2c(-c3nc(Nc4cnn(C5CCOCC5)c4)ncc3F)c[nH]c12)N1CCN(C)CC1` [Example 18, (R)-N-(3-(5-fluoro-2-((1-(tetrahydro-2H-pyran-4-yl)-1H-pyrazol-4-yl)amino)pyrimidin-4-yl)-1H-indol-7-yl)-3-methoxy-2-(4-methylpiperazin-1-yl)propanamide] the same measures were 1.09 µM, 7.73 µM, 0.0076 µM, 0.022 µM and 0.00014 µM.
Consider `COC[C@H](C(=O)Nc1cccc2c(-c3nc(Nc4cnc5cn[nH]c5c4)ncc3F)c[nH]c12)N1CCN(C)CC1` [Example 19, (R)-N-(3-(2-((1H-pyrazolo[4,3-b]pyridin-6-yl)amino)-5-fluoropyrimidin-4-yl)-1H-indol-7-yl)-3-methoxy-2-(4-methylpiperazin-1-yl)propanamide], for which the IC50 is greater than 10 µM at JAK3, 0.0077 µM in the experiment with phosphorylation of STAT6 (setting [1]), 0.215 µM at JAK2 and 0.00027 µM on JAK1.
Regarding `CNCCOc1ccc(Nc2ncc(F)c(-c3c[nH]c4c(NC(=O)[C@@H](COC)N5CCN(C)CC5)cccc34)n2)cn1` [Example 20, (R)-N-(3-(5-fluoro-2-((6-(2-(methylamino)ethoxy)pyridin-3-yl)amino)pyrimidin-4-yl)-1H-indol-7-yl)-3-methoxy-2-(4-methylpiperazin-1-yl)propanamide], the IC50 on TYK2 was 2.4 µM; at JAK3 it was greater than 10 µM; with phosphorylation of STAT6 (setting [1]), 0.0079 µM; on JAK2 it was 0.135 µM; at JAK1, 0.00065 µM.
For `COC[C@H](C(=O)Nc1cccc2c(-c3nc(Nc4cncc(C(=O)OC)c4)ncc3F)c[nH]c12)N1CCN(C)CC1` [Example 21, methyl (R)-5-((5-fluoro-4-(7-(3-methoxy-2-(4-methylpiperazin-1-yl)propanamido)-1H-indol-3-yl)pyrimidin-2-yl)amino)nicotinate] the same measures were 1.15 µM, greater than 10 µM, 0.0084 µM, 0.125 µM and 0.0002 µM.
Take `COC[C@H](C(=O)Nc1cccc2c(-c3nc(Nc4ccc(-c5ncco5)nc4)ncc3F)c[nH]c12)N1CCN(C)CC1` [Example 22, (R)-N-(3-(5-fluoro-2-((6-(oxazol-2-yl)pyridin-3-yl)amino)pyrimidin-4-yl)-1H-indol-7-yl)-3-methoxy-2-(4-methylpiperazin-1-yl)propanamide]: the IC50 was 5.25 µM at TYK2; greater than 10 µM on JAK3; 0.0085 µM in the experiment on phosphorylation of STAT6 (setting [1]); 0.467 µM on JAK2; 0.00024 µM on JAK1.
As for `COC[C@H](C(=O)Nc1cccc2c(-c3nc(Nc4ccc(-n5ccnc5)nc4)ncc3F)c[nH]c12)N1CCN(C)CC1` [Example 24, (R)-N-(3-(2-((6-(1H-imidazol-1-yl)pyridin-3-yl)amino)-5-fluoropyrimidin-4-yl)-1H-indol-7-yl)-3-methoxy-2-(4-methylpiperazin-1-yl)propanamide], the IC50 at TYK2 is 2.57 µM; on JAK3, greater than 10 µM; in the experiment with phosphorylation of STAT6 (setting [1]) it was 0.0089 µM; on JAK2 it was 0.403 µM; at JAK1, 0.00082 µM.
For `COC[C@H](C(=O)Nc1cccc2c(-c3nc(Nc4cncc(CCCO)c4)ncc3F)c[nH]c12)N1CCN(C)CC1` [Example 25, (R)-N-(3-(5-fluoro-2-((5-(3-hydroxypropyl)pyridin-3-yl)amino)pyrimidin-4-yl)-1H-indol-7-yl)-3-methoxy-2-(4-methylpiperazin-1-yl)propanamide] the same measures were 0.273 µM, greater than 10 µM, 0.0089 µM, 0.009 µM and 0.0002 µM.
